Assay results reported in paper PMC12277336, “Hypericum empetrifolium subsp. empetrifolium: an assessment of its antifungal, antidiabetic, anti-aging, and neuroprotective potential” (Frontiers in Pharmacology, 2025).
≈ marks a conversion by molar mass, not a printed value. Where “and” joins values, the source holds several entries; their conditions need not be identical. Equal entries are not always repeated.

Legend:
α-Glucosidase = conditions: flavonoids isolated from H. attenuatum; ref Jin et al., 2021; cited from earlier work
[1] = system: Candida albicans ATCC 10231; experiment: MIC, broth microdilution; assay type: cell-based; conditions: ATCC10231, C. albicans ATCC 10231
Description: (§1) The Minimum Inhibitory Concentrations (MIC) of the extracts were determined using the broth microdilution method in accordance with the guidelines of the Clinical and Laboratory Standards Institute (CLSI) ([Clinical and Laboratory Standards Institute, 2020]). The procedure was originally based on the CLSI M27-A2 standard (1997) ([[…]]) for antifungal susceptibility testing, while the updated fourth edition (2017) was referenced to reflect current methodological standards ([[…]]).
(§2) The inocula of the tested bacterial and yeast strains were prepared following CLSI protocols, and the extracts were dissolved in DMSO to prepare stock solutions. Serial dilutions ranging from 1,250 to 0.06 μ g/mL were performed in Mueller-Hinton Broth (for bacterial strains) and RPMI-1640 medium (for yeast strains). MIC values of the extracts were determined against four g (−) bacterial strains (P. aeruginosa ATCC 27853, Escherichia coli ATCC 25922, Klebsiella pneumoniae ATCC 4352, Proteus mirabilis ATCC 14153), three g (+) bacterial strains (Staphylococcus aureus ATCC 29213, Staphylococcus epidermidis ATCC 12228, Enterococcus faecalis ATCC 29212), and three yeast strains (Candida albicans ATCC 10231, Candida parapsilosis ATCC 22019, Candida tropicalis ATCC 750).

[2] = system: Candida parapsilosis ATCC 22019; experiment: MIC, broth microdilution; assay type: cell-based; conditions: Lodderomyces parapsilosis, ATCC22019; C. parapsilosis ATCC 22019
Description: as §1, §2

[3] = system: Candida tropicalis ATCC 750; experiment: MIC, broth microdilution; assay type: cell-based; conditions: ATCC750, C. tropicalis ATCC 750
Description: as §1, §2

[4] = DPPH free radical scavenging assay
Description: The DPPH radical scavenging assay was evaluated using 1,1-diphenyl-2-picrylhydrazyl (DPPH) free radical according to the method developed by [Blois (1958)]. Extracts were dissolved in methanol at a concentration of 1 mg/mL to prepare the primary stock solutions. Aliquots of these solutions, in volumes of 2, 5, 10, and 20 μ L, were each diluted to a final volume of 40 μ L with methanol. Subsequently, 160 μ L of DPPH solution at a 0.1 mM concentration was introduced to each mixture. After the solutions were incubated at room temperature in the dark for 30 min, their absorbance was measured at a wavelength of 517 nm. BHA, BHT, and α -TOC were used as positive control.

[5] = ABTS cation radical scavenging assay
Description: The ABTS cation radical scavenging assay was evaluated using 2,2′-azino-bis(3-ethylbenzothiazoline-6-sulfonic acid) according to the method developed by [Re et al. (1999)]. Extracts were dissolved in methanol at a concentration of 1 mg/mL to prepare the primary stock solutions. Aliquots of these solutions, in volumes of 2, 5, 10, and 20 μ L, were each diluted to a final volume of 40 μ L with methanol. Subsequently, 160 μ L of ABTS cation radical solution at a 7 mM concentration was introduced to each mixture. The reactions were allowed to proceed in darkness for 6 min, subsequent to which the absorbance was recorded at a wavelength of 734 nm. BHA, BHT, and α -TOC were used as positive control.

[6] = Cupric reducing antioxidant capacity (CUPRAC); conditions: 450 nm
Description: The absorbance of this chelate formation is then quantified at a wavelength of 450 nm. In the CUPRAC method, according to the procedure developed by Apak et al.; Cu (II), neocuproine (2,9-dimethyl-1,10-phenanthroline), and NH4OAc buffer were added to the sample and standard solutions to achieve final concentrations of 10, 25, 50, and 100 μ g/mL. After an incubation period of 1 h, the absorbance was measured at 450 nm. BHA, BHT, and α -TOC were used as positive control ([Apak et al., 2004]).

[7] = system: Enterococcus faecalis ATCC 29212; experiment: MIC, broth microdilution; assay type: cell-based; conditions: ATCC29212
Description: as §1, §2

[8] = molecular target: T1, Porcine pancreatic elastase (Sus scrofa, UniProt P00772); experiment: Anti-elastase assay; assay type: biochemical
T1 construct: Porcine pancreatic elastase (E.C. 3.4.21.36); from tissue; host or cells: porcine pancreas
Description: The elastase inhibition assay was conducted using a spectrophotometric method developed by [Lee et al. (1999)]. Porcine pancreatic elastase (E.C. 3.4.21.36) at a concentration of 3.33 mg/mL was used as the enzyme and dissolved in 0.2 mM Tris-HCl buffer (pH 8.0). The substrate, N-Succinyl-Ala-Ala-Ala-p-nitroanilide (SANA), was prepared in the same buffer at a concentration of 1.6 mM. For each reaction, 50 μ L of buffer, 25 μ L of enzyme solution, and 50 μ L of the test extract were pre-incubated at room temperature for 15 min before the addition of SANA. Epigallocatechin gallate (EGCG) was used as the positive control, while ethanol served as the negative control. The reaction was initiated by adding 125 μ L of the substrate solution to the mixture, followed by incubation at room temperature for 20 min. The absorbance change was then measured at 410 nm.

P. aeruginosa ATCC 27853 = experiment: MIC, broth microdilution; assay type: cell-based; conditions: Pseudomonas aeruginosa, ATCC27853
Description: as §1, §2

[9] = system: Staphylococcus epidermidis ATCC 12228; experiment: MIC, broth microdilution; assay type: cell-based; conditions: S. epidermidis ATCC 12228
Description: as §1, §2

[10] = system: Klebsiella pneumoniae ATCC 4352; experiment: MIC, broth microdilution; assay type: cell-based; conditions: K. pneumoniae ATCC 4352
Description: as §1, §2

[11] = system: Staphylococcus aureus ATCC 29213; experiment: MIC, broth microdilution; assay type: cell-based; conditions: S. aureus ATCC 29213
Description: as §1, §2

[12] = system: Proteus mirabilis ATCC 14153; experiment: MIC, broth microdilution; assay type: cell-based; conditions: P. mirabilis ATCC 14153
Description: as §1, §2

[13] = system: Escherichia coli ATCC 25922; experiment: MIC, broth microdilution; assay type: cell-based; conditions: E. coli ATCC 25922
Description: as §1, §2

T1 sequence (P00772 27-266): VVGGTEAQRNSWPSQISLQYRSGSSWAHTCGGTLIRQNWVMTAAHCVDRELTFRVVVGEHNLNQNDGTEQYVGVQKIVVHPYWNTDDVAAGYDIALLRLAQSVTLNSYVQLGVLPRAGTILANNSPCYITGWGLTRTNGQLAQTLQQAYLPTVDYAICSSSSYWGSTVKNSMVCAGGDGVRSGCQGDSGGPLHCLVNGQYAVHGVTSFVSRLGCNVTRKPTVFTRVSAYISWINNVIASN

Structure (SMILES)	DPPH (% Inhibition) ([4]; 10 µg/mL) [%]	DPPH (% Inhibition) ([4]; 25 µg/mL) [%]	DPPH (% Inhibition) ([4]; 50 µg/mL) [%]	DPPH (% Inhibition) ([4]; 100 µg/mL) [%]	ABTS (% Inhibition) ([5]; 10 µg/mL) [%]	ABTS (% Inhibition) ([5]; 25 µg/mL) [%]	ABTS (% Inhibition) ([5]; 50 µg/mL) [%]	ABTS (% Inhibition) ([5]; 100 µg/mL) [%]	CUPRAC (Absorbance) ([6]; 10 µg/mL)	CUPRAC (Absorbance) ([6]; 25 µg/mL)	CUPRAC (Absorbance) ([6]; 50 µg/mL)	CUPRAC (Absorbance) ([6]; 100 µg/mL)	also measured
O=c1c(O[C@@H]2OC[C@H](O)[C@H](O)[C@H]2O)c(-c2ccc(O)c(O)c2)oc2cc(O)cc(O)c12 [guaijaverin]													IC50 (α-Glucosidase): 17.2 ± 0.75 µM
Clc1ccccc1C(c1ccccc1)(c1ccccc1)n1ccnc1 [Clotrimazole]													MIC [1]: 4.9 µg/mL (≈ 14.2 µM)
C[C@@H]1[C@H](O)[C@@H](C)/C=C/C=C/C=C/C=C/C=C/C=C/C=C/[C@H](O[C@@H]2O[C@H](C)[C@@H](O)[C@H](N)[C@@H]2O)C[C@@H]2O[C@](O)(C[C@@H](O)C[C@@H](O)[C@H](O)CC[C@@H](O)C[C@@H](O)CC(=O)O[C@H]1C)C[C@H](O)[C@H]2C(=O)O [Amphotericin B]													MIC [2]: 1 µg/mL (≈ 1.08 µM); MIC [3]: 0.5 µg/mL (≈ 0.541 µM)
Cc1cc(C(C)(C)C)c(O)c(C(C)(C)C)c1 [BHT]	39.28 ± 1.03	60.68 ± 4.18	69.14 ± 1.84	76.17	76.35 ± 0.78	88.00 ± 2.49	88.96 ± 0.13	89.13	0.652 ± 0.01	1.211 ± 0.18	2.040 ± 0.31	3.559 ± 0.27 and 3.559	
NCC[C@H](O)C(=O)N[C@@H]1C[C@H](N)[C@@H](O[C@H]2O[C@H](CN)[C@@H](O)[C@H](O)[C@H]2O)[C@H](O)[C@H]1O[C@H]1O[C@H](CO)[C@@H](O)[C@H](N)[C@H]1O [Amikacin]													MIC [7]: 128 µg/mL (≈ 219 µM)
C[C@H]1[C@H](C)CC[C@]2(C(=O)O)CC[C@]3(C)C(=CC[C@@H]4[C@@]5(C)CC[C@H](O)C(C)(C)[C@@H]5CC[C@]43C)[C@H]12 [Ursolic acid]													IC50 [8]: 30.2 µM
Cc1c(C)c2c(c(C)c1O)CC[C@@](C)(CCC[C@H](C)CCC[C@H](C)CCCC(C)C)O2 [α-TOC]	63.28 ± 3.28	73.51 ± 4.14	76.94 ± 0.71	78.07	65.39 ± 2.37	83.47 ± 0.98	85.89 ± 2.62	88.89	0.391 ± 0.01	0.904 ± 0.00	1.563 ± 0.09	2.460 ± 0.09 and 2.460	
CC(C)(O/N=C(\C(=O)N[C@@H]1C(=O)N2C(C(=O)[O-])=C(C[n+]3ccccc3)CS[C@H]12)c1csc(N)n1)C(=O)O [Ceftazidime]													MIC (P. aeruginosa ATCC 27853): 2.4 µg/mL (≈ 4.39 µM)
COc1ccc(O)c(C(C)(C)C)c1 [BHA]	62.00 ± 0.90	71.86 ± 0.76	74.48 ± 0.35	75.23	63.94 ± 0.18	78.23 ± 1.08	87.41 ± 0.16	87.62	0.838 ± 0.03	1.647 ± 0.18	2.753 ± 0.09	3.769 ± 0.05 and 3.769	
CO/N=C(\C(=O)N[C@@H]1C(=O)N2C(C(=O)[O-])=C(COC(N)=O)CS[C@H]12)c1ccco1.[Na+] [Cefuroxime-Na]													MIC [9]: 9.8 µg/mL; MIC [10]: 4.9 µg/mL; MIC [11]: 1.2 µg/mL; MIC [12]: 2.4 µg/mL; MIC [13]: 4.9 µg/mL
